Experimental data from paper PMC5853558, “De novo identification of lipid II binding lipopeptides with antibacterial activity against vancomycin-resistant bacteria” (Chemical Science, 2017).
*1 amine or outer side, *2 acyl side, *3 side chain or, on linkers, in order; H or OH if unused. Where a SMILES comes first, the peptide text is derived from it. Bridges are numbered along the chain shown (N, C = ends). [ ]: non-standard residue; d: D form. The star is where a group is joined. TBMB = c1c(C[*:1])cc(C[*:3])cc1C[*:2]; NHDecyl = CCCCCCCCCCN*

System: C15-P (farnesyl-phosphate)
Assay: Antagonization assay with C15-P (negative control)
Format: cell-based
Design: key: +: antagonization of antibiotic activity; -: no antagonization of antibiotic activity
Conditions: Supplemental table S10, peptide at 4x MIC, 4 molar equivalents, M. luteus, 16 h at 30°C, growth observed visually
Description: Section 4 Biological and biochemical experiments
4.1 Minimum inhibitory concentration assay
MIC values were determined by using the broth microdilution method. Peptides were dissolved first in DMSO and diluted with broth so that the final peptide concentration was 1024 µg/ml and the DMSO concentration was 4%. Peptide serial dilutions were made in TSB in a polypropylene 96-wells plate using 50 µl volumes. An overnight culture of the organism of interest was diluted to and OD600 of 0.01 and grown until they reach 0.5. The culture was then diluted to 1 x 10^6 CFU/ml and 50 µl of this suspension was added to each well. The highest concentrations were then 512 µg/ml peptide and 2% DMSO. The plates were incubated at the preferred growth temperature of the organism that was used and 250 rpm. […] When […]
determining the MICs of the lipidated peptides, the lipopeptides were first dissolved in DMSO and diluted with TSB so that the peptide concentration was 128 µg/ml and the DMSO concentration was 4%. After inoculation the highest peptide concentration evaluated was 64 µg/ml and the DMSO concentration was 2%. A DMSO control was tested for each strain to ensure the DMSO did not affect the growth of the particular strain. […]
4.4 Antagonization assays
Stock solutions of each peptide antibiotic were prepared so that their final concentration in the assay would be 4x MIC. Peptides were transferred to a 96 wells plate and lipid II or C15-P (farnesyl-phosphate) was added at 4 molar equivalents in a final volume of 50 µl. Each well received 50 µl of bacterial suspension (M. luteus) at 1 x 10^6 CFU/ml and the plates were incubated for 16 h at 250 rpm and 30°C. Growth was observed visually (see supplemental table S10 for results).
Supplemental table S10. Lipid II antagonization assay results
Result with indicated antagonista
Antibiotic compound Lipid II C55-PP C15-Pb […]
a + = antagonization of antibiotic activity; - = no antagonization of antibiotic activity; b C -P was used as a negative […]
control (C15-P is a watersoluble analogue of the lipid II precursor undecaprenol phosphate).
4.6 Scanning Electron Microscopy
E. faecium E155 was inoculated at an OD600nm of 0.05 into 300 µL of cation adjusted TSB containing P8-D-(S6R, R15A)-C10 or nisin at (both a 2x MIC) along with 1% glucose and 1%
DMSO. An untreated culture was used as control. Following overnight incubation (ca. 16 hr) bacterial cells were fixed for 15 minutes with 1% (v/v) glutaraldehyde in phosphate buffered saline (PBS) at room temperature on poly-L-lysine covered glass slides (12 mm diameter). […]

Structure (SMILES)	Result with antagonist C15-P
CCCCCCCCCCNC(=O)CNC(=O)[C@H]1CSCc2cc3cc(c2)CSC[C@@H](NC(=O)[C@@H](CC(C)C)NC(=O)[C@@H](CC(C)C)NC(=O)[C@@H](CCCNC(=N)N)NC(=O)[C@@H](CCC(N)=O)NC(=O)[C@@H](CC(C)C)NC(=O)[C@@H](CC(C)C)NC(=O)[C@H](NC(=O)[C@@H](C)N)CSC3)C(=O)N2CCC[C@@H]2C(=O)N[C@H](Cc2ccc(O)cc2)C(=O)N[C@H](CO)C(=O)N[C@H]([C@H](C)O)C(=O)N[C@H](Cc2c[nH]cn2)C(=O)N[C@H](C)C(=O)N1 [P8-D-(S6R, R15A)-C10] (H-[dA][dC][dL][dL][dQ][dR][dL][dL][dC][dP][dY][dS][dT][dH][dA][dC]G-NHDecyl; linker 2-9-16 via TBMB; N-terminus assumed)	-
CCCCCCCCCCNC(=O)CNC(=O)[C@@H]1CSCc2cc3cc(c2)CSC[C@H](NC(=O)[C@H](CC(C)C)NC(=O)[C@H](CC(C)C)NC(=O)[C@H](CCCNC(=N)N)NC(=O)[C@H](CCC(N)=O)NC(=O)[C@H](CC(C)C)NC(=O)[C@H](CC(C)C)NC(=O)[C@@H](NC(=O)[C@H](C)N)CSC3)C(=O)N2CCC[C@H]2C(=O)N[C@@H](Cc2ccc(O)cc2)C(=O)N[C@@H](CO)C(=O)N[C@@H]([C@@H](C)O)C(=O)N[C@@H](Cc2c[nH]cn2)C(=O)N[C@@H](C)C(=O)N1 [P8-L-(S6R, R15A)-C10] (H-ACLLQRLLCPYSTHACG-NHDecyl; linker 2-9-16 via TBMB; N-terminus assumed)	-
